Legend:
[1] = type: in vivo, patients
Procedure: In one clinical trial, the absorption of the powdered colistimethate sodium into the airways of the lungs was measured (specific airway conductance). […] This is a very high uptake, and more than would be expected from a powdered drug. […] In a second trial, patients were given a premedication dose of 200 micrograms of salbutamol. […] In an alternative medication regime, the salbutamol can be mixed into the same capsule as the colistin sulphomethate sodium.

[2] = Water content (Karl-Fisher) of colistimethate sodium powder and gelatin capsules in various storage conditions; type: physicochemical; design: unit not given here; settings: n = 3
Procedure: Aliquots of colistimethate sodium encapsulated in gelatin capsules were stored in relative humidity ranging from about 20% RH to about 80% RH at ambient temperature conditions. Encapsulated colistimethate sodium was tested for moisture content and piercing performance at several time points. For example, the capsules were tested at 23° C. at 30% RH, 23° C. at 40% RH, 23° C. at 48% RH, 23° C. at 75% RH at different time points such as 1, 2, 4, and 24 hrs. Storage conditions were generated using qualified stability chambers set at the target temperature 23° C.±2° C. and the set relative humidity ±5% RH. Ambient laboratory conditions were determined to be at about 23° C.±2° C., 48% RH. Ambient conditions were verified using calibrated NIST thermo-Hygrometers. Average moisture content of colistimethate sodium as well as the moisture content of gelatin capsules was determined using Karl-Fisher determination.

[3] = system: gram negative microbial organisms; assay: Synergy of activity of the mixture of components; type: cell-based
From the text: Colistimethate sodium is a negatively charged molecular ion with positively charged sodium counter ions. […] There are five sulphomethate groups (CH2—OS02^−). U.S. Pat. No. 5,767,068 refers to variable groups Rx and R2; Rx is identified as 6-methyloctanoyl or 6-methylheptanoyl, and R2 as sec-butyl, isobutyl or isopropyl.

[4] = in vivo; cited from earlier work

Compound: CC(C)(C)NCC(O)c1ccc(O)c(CO)c1 (stereo not shown) [salbutamol]
- airway conductance ([1]; premedication dose of 200 micrograms, second trial): appeared to improve airway conductance

Compound: colistin sulphomethate sodium [colistimethate sodium]
- Water Content (KF) ([2]; 23° C./30% RH, 0 hr): 5.44
- Water Content (KF) ([2]; 23° C./30% RH, 1 hr): 5.28
- Water Content (KF) ([2]; 23° C./30% RH, 2 hr): 5.85
- Water Content (KF) ([2]; 23° C./30% RH, 4 hr): 5.94
- Water Content (KF) ([2]; 23° C./30% RH, 24 hr): 6.54
- Water Content (KF) ([2]; 23° C./40% RH, 0 hr): 5.44
- Water Content (KF) ([2]; 23° C./40% RH, 1 hr): 5.96
- Water Content (KF) ([2]; 23° C./40% RH, 2 hr): 5.81
- Water Content (KF) ([2]; 23° C./40% RH, 4 hr): 6.51
- Water Content (KF) ([2]; 23° C./40% RH, 9 hr): 6.50
- Water Content (KF) ([2]; 23° C./40% RH, 24 hr): 9.54
- Water Content (KF) ([2]; 23° C./48% RH, 0 hr): 5.44
- Water Content (KF) ([2]; 23° C./48% RH, 1 hr): 5.68
- Water Content (KF) ([2]; 23° C./48% RH, 2 hr): 6.39
- Water Content (KF) ([2]; 23° C./48% RH, 4 hr): 6.64
- Water Content (KF) ([2]; 23° C./48% RH, 24 hr): 14.49
- Water Content (KF) ([2]; 23° C./75% RH, 0 hr): 5.44
- Water Content (KF) ([2]; 23° C./75% RH, 1 hr): 7.04
- Water Content (KF) ([2]; 23° C./75% RH, 2 hr): 6.96
- Water Content (KF) ([2]; 23° C./75% RH, 4 hr): 10.74
- irritation of the lungs ([1]; human, in vivo): does not cause irritation
- specific airway conductance, whole body plethysmography, compared with traditional nebulised colistimethate sodium ([1]; human, in vivo): did not show any noticeable difference
- activity of the mixture of components against gram negative microbial organisms [3]: synergy of activity
- absorption into the bloodstream [4]: poorly absorbed
